Experimental data from US10206394B2, “Herbicidal compounds” (Syngenta Participations AG, priority 2014, dated 2019).
Where two headings read alike, the source gives them in different places.

Legend:
Experiment in all cases: Glasshouse assay for herbicidal activity (pre- and post-emergence), percentage phytotoxicity
Format in all cases: in vivo
[1] = test system: Avena fatua (AVEFA); settings: Avena fatua
Summary of the method: (§1)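 Seeds were sown in standard soil in pots and grown one day (pre-emergence) or about 12 days (post-emergence) before herbicide application. Plants were kept at 24/18 °C (warm-climate) or 20/16 °C (cool-climate) day/night, 16 h light, 65% humidity, watered twice daily, and damage was scored visually at 15 DAA (POST) or 20 DAA (PRE).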

[2] = test system: Echinochloa crus-galli (ECHCG); settings: Echinochloa crus-galli
Summary of the method: as §1

[3] = test system: Alopecurus myosuroides (ALOMY); settings: Alopecurus myosuroides
Summary of the method: as §1

[4] = test system: Lolium perenne (LOLPE); settings: Lolium perenne
Summary of the method: as §1

[5] = post-emergence, 360 h, 250 g/ha, post-emergence, 15 DAA, visual assessment (100%=total damage, 0%=no damage), read-out: Post-emergence herbicidal activity (percentage phytotoxicity) AVEFA POST
[6] = pre-emergence, 480 h, 250 g/ha, pre-emergence, 20 DAA, visual assessment (100%=total damage, 0%=no damage), read-out: Pre-emergence herbicidal activity (percentage phytotoxicity) AVEFA PRE
[7] = post-emergence, 360 h, 250 g/ha, post-emergence, 15 DAA, visual assessment (100%=total damage, 0%=no damage), read-out: Post-emergence herbicidal activity (percentage phytotoxicity) ECHCG POST
[8] = pre-emergence, 480 h, 250 g/ha, pre-emergence, 20 DAA, visual assessment (100%=total damage, 0%=no damage), read-out: Pre-emergence herbicidal activity (percentage phytotoxicity) ECHCG PRE
[9] = post-emergence, 360 h, 250 g/ha, post-emergence, 15 DAA, visual assessment (100%=total damage, 0%=no damage), read-out: Post-emergence herbicidal activity (percentage phytotoxicity) ALOMY POST
[10] = pre-emergence, 480 h, 250 g/ha, pre-emergence, 20 DAA, visual assessment (100%=total damage, 0%=no damage), read-out: Pre-emergence herbicidal activity (percentage phytotoxicity) ALOMY PRE
[11] = post-emergence, 360 h, 250 g/ha, post-emergence, 15 DAA, visual assessment (100%=total damage, 0%=no damage), read-out: Post-emergence herbicidal activity (percentage phytotoxicity) LOLPE POST
[12] = pre-emergence, 480 h, 250 g/ha, pre-emergence, 20 DAA, visual assessment (100%=total damage, 0%=no damage), read-out: Pre-emergence herbicidal activity (percentage phytotoxicity) LOLPE PRE
[13] = post-emergence, 360 h, POST-emergence, rate 250 g/ha, visual score 15 DAA (100%=total damage, 0%=no damage), read-out: Post-emergence herbicidal activity (percentage phytotoxicity) AVEFA POST
[14] = pre-emergence, 480 h, PRE-emergence, rate 250 g/ha, visual score 20 DAA (100%=total damage, 0%=no damage), read-out: Pre-emergence herbicidal activity (percentage phytotoxicity) AVEFA PRE
[15] = post-emergence, 360 h, POST-emergence, rate 250 g/ha, visual score 15 DAA (100%=total damage, 0%=no damage), read-out: Post-emergence herbicidal activity (percentage phytotoxicity) ECHCG POST
[16] = pre-emergence, 480 h, PRE-emergence, rate 250 g/ha, visual score 20 DAA (100%=total damage, 0%=no damage), read-out: Pre-emergence herbicidal activity (percentage phytotoxicity) ECHCG PRE
[17] = post-emergence, 360 h, POST-emergence, rate 250 g/ha, visual score 15 DAA (100%=total damage, 0%=no damage), read-out: Post-emergence herbicidal activity (percentage phytotoxicity) ALOMY POST
[18] = pre-emergence, 480 h, PRE-emergence, rate 250 g/ha, visual score 20 DAA (100%=total damage, 0%=no damage), read-out: Pre-emergence herbicidal activity (percentage phytotoxicity) ALOMY PRE
[19] = post-emergence, 360 h, POST-emergence, rate 250 g/ha, visual score 15 DAA (100%=total damage, 0%=no damage), read-out: Post-emergence herbicidal activity (percentage phytotoxicity) LOLPE POST
[20] = pre-emergence, 480 h, PRE-emergence, rate 250 g/ha, visual score 20 DAA (100%=total damage, 0%=no damage), read-out: Pre-emergence herbicidal activity (percentage phytotoxicity) LOLPE PRE
[21] = post-emergence, 360 h, Rate 250 g/ha, post-emergence, assessed visually 15 DAA, 100%=total damage, 0%=no damage, read-out: Post-emergence herbicidal activity (percentage phytotoxicity) AVEFA POST
[22] = pre-emergence, 480 h, Rate 250 g/ha, pre-emergence, assessed visually 20 DAA, 100%=total damage, 0%=no damage, read-out: Pre-emergence herbicidal activity (percentage phytotoxicity) AVEFA PRE
[23] = post-emergence, 360 h, Rate 250 g/ha, post-emergence, assessed visually 15 DAA, 100%=total damage, 0%=no damage, read-out: Post-emergence herbicidal activity (percentage phytotoxicity) ECHCG POST
[24] = pre-emergence, 480 h, Rate 250 g/ha, pre-emergence, assessed visually 20 DAA, 100%=total damage, 0%=no damage, read-out: Pre-emergence herbicidal activity (percentage phytotoxicity) ECHCG PRE
[25] = post-emergence, 360 h, Rate 250 g/ha, post-emergence, assessed visually 15 DAA, 100%=total damage, 0%=no damage, read-out: Post-emergence herbicidal activity (percentage phytotoxicity) ALOMY POST
[26] = pre-emergence, 480 h, Rate 250 g/ha, pre-emergence, assessed visually 20 DAA, 100%=total damage, 0%=no damage, read-out: Pre-emergence herbicidal activity (percentage phytotoxicity) ALOMY PRE
[27] = post-emergence, 360 h, Rate 250 g/ha, post-emergence, assessed visually 15 DAA, 100%=total damage, 0%=no damage, read-out: Post-emergence herbicidal activity (percentage phytotoxicity) LOLPE POST
[28] = pre-emergence, 480 h, Rate 250 g/ha, pre-emergence, assessed visually 20 DAA, 100%=total damage, 0%=no damage, read-out: Pre-emergence herbicidal activity (percentage phytotoxicity) LOLPE PRE
[29] = post-emergence, 360 h, post-emergence, 250 g/ha, 15 DAA, visual score (100%=total damage; 0%=no damage), read-out: AVEFA POST herbicidal activity (percentage phytotoxicity)
[30] = pre-emergence, 480 h, pre-emergence, 250 g/ha, 20 DAA, visual score (100%=total damage; 0%=no damage), read-out: AVEFA PRE herbicidal activity (percentage phytotoxicity)
[31] = post-emergence, 360 h, post-emergence, 250 g/ha, 15 DAA, visual score (100%=total damage; 0%=no damage), read-out: ECHCG POST herbicidal activity (percentage phytotoxicity)
[32] = pre-emergence, 480 h, pre-emergence, 250 g/ha, 20 DAA, visual score (100%=total damage; 0%=no damage), read-out: ECHCG PRE herbicidal activity (percentage phytotoxicity)
[33] = post-emergence, 360 h, post-emergence, 250 g/ha, 15 DAA, visual score (100%=total damage; 0%=no damage), read-out: ALOMY POST herbicidal activity (percentage phytotoxicity)
[34] = pre-emergence, 480 h, pre-emergence, 250 g/ha, 20 DAA, visual score (100%=total damage; 0%=no damage), read-out: ALOMY PRE herbicidal activity (percentage phytotoxicity)
[35] = post-emergence, 360 h, post-emergence, 250 g/ha, 15 DAA, visual score (100%=total damage; 0%=no damage), read-out: LOLPE POST herbicidal activity (percentage phytotoxicity)
[36] = pre-emergence, 480 h, pre-emergence, 250 g/ha, 20 DAA, visual score (100%=total damage; 0%=no damage), read-out: LOLPE PRE herbicidal activity (percentage phytotoxicity)

Cc1cc(-c2ccc(C#N)cn2)cc(C)c1C1C(=O)CC(CC(=O)NC(C)(C)C)C1=O (centres unmarked) [Compound B75]
pest or weed control at 250 g/ha [1, 5]: 100%
pest or weed control at 250 g/ha [1, 6]: 90%
pest or weed control at 250 g/ha [2, 7]: 100%
pest or weed control at 250 g/ha [2, 8]: 100%
pest or weed control at 250 g/ha [3, 9]: 100%
pest or weed control at 250 g/ha [3, 10]: 100%
pest or weed control at 250 g/ha [4, 11]: 100%
pest or weed control at 250 g/ha [4, 12]: 90%

Cc1cc(-n2cc(Cl)cn2)cc(C)c1C1C(=O)CC(CC(=O)NCc2ccc(C#N)cc2)C1=O (centres unmarked) [Compound B225]
pest or weed control at 250 g/ha [1, 13]: 70%
pest or weed control at 250 g/ha [1, 14]: 0%
pest or weed control at 250 g/ha [2, 15]: 70%
pest or weed control at 250 g/ha [2, 16]: 0%
pest or weed control at 250 g/ha [3, 17]: 60%
pest or weed control at 250 g/ha [3, 18]: 0%
pest or weed control at 250 g/ha [4, 19]: 60%
pest or weed control at 250 g/ha [4, 20]: 0%

COCCNC(=O)CC1CC(=O)C(c2c(C)cc(-c3ncc(F)cn3)cc2C)C1=O (centres unmarked) [Compound A87]
pest or weed control at 250 g/ha [1, 21]: 100%
pest or weed control at 250 g/ha [1, 22]: 90%
pest or weed control at 250 g/ha [2, 23]: 100%
pest or weed control at 250 g/ha [2, 24]: 90%
pest or weed control at 250 g/ha [3, 25]: 100%
pest or weed control at 250 g/ha [3, 26]: 80%
pest or weed control at 250 g/ha [4, 27]: 80%
pest or weed control at 250 g/ha [4, 28]: 80%

CCCN(CC)C(=O)CC1CC(=O)C(c2c(C)cc(C)cc2C)C1=O (centres unmarked) [Compound A171]
pest or weed control at 250 g/ha [1, 29]: 70%
pest or weed control at 250 g/ha [1, 30]: 20%
pest or weed control at 250 g/ha [2, 31]: 70%
pest or weed control at 250 g/ha [2, 32]: 80%
pest or weed control at 250 g/ha [3, 33]: 70%
pest or weed control at 250 g/ha [3, 34]: 60%
pest or weed control at 250 g/ha [4, 35]: 80%
pest or weed control at 250 g/ha [4, 36]: 70%

COCCOCCCNC(=O)CC1CC(=O)C(c2c(C)cc(C)cc2C)C1=O (centres unmarked) [Compound A179]
pest or weed control at 250 g/ha [1, 29]: 100%
pest or weed control at 250 g/ha [1, 30]: 90%
pest or weed control at 250 g/ha [2, 31]: 100%
pest or weed control at 250 g/ha [2, 32]: 80%
pest or weed control at 250 g/ha [3, 33]: 100%
pest or weed control at 250 g/ha [3, 34]: 100%
pest or weed control at 250 g/ha [4, 35]: 80%
pest or weed control at 250 g/ha [4, 36]: 90%

CC#Cc1cc(C)c(C2C(=O)CC(CC(=O)NCC#N)C2=O)c(C)c1 (centres unmarked) [Compound A78]
pest or weed control at 250 g/ha [1, 21]: 40%
pest or weed control at 250 g/ha [1, 22]: 30%
pest or weed control at 250 g/ha [2, 23]: 100%
pest or weed control at 250 g/ha [2, 24]: 60%
pest or weed control at 250 g/ha [3, 25]: 80%
pest or weed control at 250 g/ha [3, 26]: 10%
pest or weed control at 250 g/ha [4, 27]: 30%
pest or weed control at 250 g/ha [4, 28]: 20%

Cc1cc(C)c(C2C(=O)CC(CC(=O)NC3CCC(C)CC3C)C2=O)c(C)c1 (centres unmarked) [Compound A103]
pest or weed control at 250 g/ha [1, 21]: 10%
pest or weed control at 250 g/ha [2, 23]: 20%
pest or weed control at 250 g/ha [3, 25]: 60%
pest or weed control at 250 g/ha [4, 27]: 20%

Cc1cnc(CNC(=O)CC2CC(=O)C(c3c(C)cc(-c4cncnc4)cc3C)C2=O)cn1 (centres unmarked) [Compound A147]
pest or weed control at 250 g/ha [1, 21]: 20%
pest or weed control at 250 g/ha [2, 23]: 60%
pest or weed control at 250 g/ha [3, 25]: 20%
pest or weed control at 250 g/ha [4, 27]: 0%

CONC(=O)CC1CC(=O)C(c2c(C)cc(C)cc2C)C1=O (centres unmarked) [Compound B96]
pest or weed control at 250 g/ha [1, 5]: 60%
pest or weed control at 250 g/ha [1, 6]: 0%
pest or weed control at 250 g/ha [2, 7]: 90%
pest or weed control at 250 g/ha [2, 8]: 30%
pest or weed control at 250 g/ha [3, 9]: 20%
pest or weed control at 250 g/ha [3, 10]: 0%
pest or weed control at 250 g/ha [4, 11]: 80%
pest or weed control at 250 g/ha [4, 12]: 80%

Cc1cc(C)c(C2C(=O)CC(CC(=O)NCc3cccc(C)n3)C2=O)c(C)c1 (centres unmarked) [Compound B68]
pest or weed control at 250 g/ha [1, 5]: 80%
pest or weed control at 250 g/ha [1, 6]: 10%
pest or weed control at 250 g/ha [2, 7]: 70%
pest or weed control at 250 g/ha [2, 8]: 80%
pest or weed control at 250 g/ha [3, 9]: 90%
pest or weed control at 250 g/ha [3, 10]: 80%
pest or weed control at 250 g/ha [4, 11]: 70%
pest or weed control at 250 g/ha [4, 12]: 80%

Cc1cc(-c2ncc(F)cc2F)cc(C)c1C1C(=O)CC(CC(=O)N(C)C)C1=O (centres unmarked) [Compound B265]
pest or weed control at 250 g/ha [1, 13]: 100%
pest or weed control at 250 g/ha [1, 14]: 100%
pest or weed control at 250 g/ha [2, 15]: 100%
pest or weed control at 250 g/ha [2, 16]: 100%
pest or weed control at 250 g/ha [3, 17]: 100%
pest or weed control at 250 g/ha [3, 18]: 100%
pest or weed control at 250 g/ha [4, 19]: 100%
pest or weed control at 250 g/ha [4, 20]: 100%
